From patent US20110251158A1, “FULLERENE THERAPIES FOR INFLAMMATION AND INHIBITION OF BUILD-UP OF ARTERIAL PLAQUE” (Luna Innovations Incorporated, priority 2008, published 2011)
Read-outs that look alike come from different tables or passages of the source.

Columns and labels:
[1] = tested on: U937 monocyte cells; conditions: for % Viability: human
Protocol: The human monocytic cell line U937 was obtained from the American Type Culture Collection (Manassas, Va., USA). Cells are maintained in RPMI 1640 media enriched with 10% heat-inactivated FBS, 2 mM L-Glutamine, 10 mM HEPES buffer, 0.1 mM non-essential Amino Acids, 1% antibiotic/antimycotic, and 50 uM beta mercaptoethanol at 37° C., 6% CO2.

[2] = Solubility; format: physicochemical

Molecule: O=C1O[C@H]([C@@H](O)CO)C(O)=C1O [Vitamin C]
- toxic effects on the viability of serum-starved cell [1]: did not have toxic effects
- % Viability ([1]; 3 day, 0.67 uM): 98.8% ± 0.06
- % Viability ([1]; 3 day, 6.7 uM): 97.4% ± 1.86
- % Viability ([1]; 3 day, 67 uM): 98.2% ± 0.67
- % Viability ([1]; 6 day, 0.67 uM): 93.8% ± 1.09
- % Viability ([1]; 6 day, 6.7 uM): 91.2% ± 0.33
- % Viability ([1]; 6 day, 67 uM): 90.9% ± 0.07
- % Viability ([1]; 9 day, 0.67 uM): 60.9% ± 1.13
- % Viability ([1]; 9 day, 6.7 uM): 61.8% ± 1.10
- % Viability ([1]; 9 day, 67 uM): 60.7% ± 0.28

Molecule: C70-(DMAE)4
- solubility in buffer ([2]; buffer): moderate solubility

Molecule: C70-Tetraphosphate
- dissolution in aqueous solution ([2]; slightly basic aqueous solution, pH adjusted to 7.4): remained dissolved

Molecule: C70-Tetrapyridine
- solubility ([2]; DI water and phosphate buffered saline): > 2000 µg/mL
